Experimental data taken from ChEMBL document CHEMBL1156829 (Proc Natl Acad Sci U S A, 2008).

Experiments:
[1] = test system: Plasmodium falciparum; test: NOVARTIS: Inhibition of Plasmodium falciparum W2 (drug-resistant) proliferation in erythrocyte-based infection assay; assay type: functional, organism-based; conditions: Plasmodium falciparum, W2; read-out: EC50
[2] = NOVARTIS: Cytotoxicity against human hepatocellular carcinoma cell line (Huh7); assay type: toxicity, cell-based, Huh-7; conditions: Huh7 cells (hepatocellular carcinoma cell line)
[3] = test system: Plasmodium falciparum; test: NOVARTIS: Inhibition of Plasmodium falciparum 3D7 (drug-susceptible) proliferation in erythrocyte-based infection assay; assay type: functional, organism-based; conditions: Plasmodium falciparum, 3D7

Structure (SMILES)	EC50 [1] [µM]	CC50 [2] [µM]	EC50 [3] [µM]
O=C(NN=CC(Br)=Cc1ccccc1)c1ccc(F)cc1	0.618	> 10	0.981
Cc1ccc2nc(-c3ccc(O)cc3)oc2c1	> 0.635	> 10	> 1.25
COc1ccc(C2c3cccn3-c3ccccc3N2C(=O)CN(C(=O)Nc2ccc(C(F)(F)F)cc2)C2CC2)cc1 (centres undefined)	6.2	> 100	7.51
CCCCCCN(C(=O)c1ccc2ccccc2c1)C(CC)c1nc2ccccc2c(=O)n1-c1ccccc1OC (centres undefined)	0.631	> 10	0.641
CCNC(=O)[C@@H]1C[C@@H](NC2C3CC4CC(C3)CC2C4)CN1Cc1cccc(OC)c1OC (some centres undefined)	4.6	72.2	> 12.5
CCOC(=O)C1(CC)CC(C)(C(=O)C[n+]2cccc(Br)c2)OC1=O (centres undefined)	0.628	> 10	0.41
COc1ccccc1-n1c(C=Cc2cc(Br)ccc2O)nc2ccccc2c1=O	1.24	19.4	2.07
CC(C)CNC(=O)c1cnc(NCCCn2ccnc2)nc1Nc1ccccc1	0.639	> 10	0.633
COc1ccc(C(=O)C(C)[n+]2ccccc2-c2ccccn2)cc1 (centres undefined)	> 0.751	> 12.1	0.602
Cc1ccc(C(=O)NCCN2CCCCC2)cn1	0.621	> 10	> 1.31
COc1cccc(CC2(CO)CCCN(Cc3sc(N4CCCC4)nc3Cl)C2)c1 (centres undefined)	> 6.21	> 100	> 12.5
Cc1nc(-c2ccccc2)nc(C(=O)N2CCN(C(=O)/C=C/c3ccccc3)C(C)C2)c1C(=O)OC(C)C (centres undefined)	0.621	> 10	> 1.25
CC1CCCCN1CCCNCc1ccc(OCc2ccccc2)cc1 (centres undefined)	0.298	4.65	0.385
COCCNc1cc(-c2ccccn2)nc(-c2ccccn2)n1	0.624	> 10	0.44
CCN(CC)[P+](N(C)C[Si](C)(C)C)(N(CC)CC)N(CC)CC	0.523	8.41	0.154
CCN(CC)CCN(Cc1cc2ccc(C)cc2[nH]c1=O)C(=S)NC(C)c1ccccc1 (centres undefined)	1.33	21.5	1.69
CC(C)CC(NC(=O)/C(=C\c1ccco1)NC(=O)c1ccccc1)C(=O)OCc1ccccc1 (centres undefined)	> 0.625	> 10	> 1.25
CCCCN(CC(=O)N1c2ccccc2-n2cccc2C1c1ccc(OC)cc1)C(=O)Nc1cccc(F)c1 (centres undefined)	6.25	> 100	8.6
CC[n+]1c(/C=C/N(C)c2ccccc2)sc(-c2ccccc2)c1-c1ccccc1	0.638	> 10	1.1
CCCn1c(C(CC)N2CCNCC2)nc2ccccc2c1=O (centres undefined)	0.637	> 10	0.285
CCC(/C=C1\Sc2ccc3ccccc3c2N1C)=C\c1sc2ccc3ccccc3c2[n+]1C	6.37	> 100	2.61
CCCCCC(=O)N(CCN(C)C)C(CC)c1nc2ccccc2c(=O)n1-c1ccc(F)cc1 (centres undefined)	> 0.628	> 10	> 1.25
COc1cc(OC)cc(N2CCN(CCNCCOc3ccccc3)[C@@H](c3ccccc3)C2)c1	> 0.635	> 10	> 1.25
CC(=O)N1CCN(C(=O)CCCSc2nnc(-c3ccc(C)cc3)n2-c2cccc(C)c2)CC1C (centres undefined)	> 0.634	> 10	> 0.914
CC1Cc2ccc(F)cc2CN1C(=O)c1ccc(COc2ccccc2Br)o1 (centres undefined)	6.35	> 100	8.37
O=C(CSc1ccccc1)NCCCCNc1ccnc2cc(Cl)ccc12	0.632	> 10	0.488
CC(C)COc1ccc(C(=O)N/C(=C/c2ccccc2)C(N)=O)cc1	> 0.617	> 10	> 1.25

Structure (SMILES)	EC50 [1] [µM]	CC50 [2] [µM]	EC50 [3] [µM]
COC(CNc1cc(-c2ccccn2)nc(-c2ccccn2)n1)OC	0.633	> 10	0.336
COc1ccc(N2C(N)=NC(N)=NC23CCCC3)cc1	6.35	> 100	0.393
O=C(Nc1ccccc1)C1Cc2ccccc2CN1S(=O)(=O)c1ccc(F)cc1 (centres undefined)	6.31	> 100	> 12.5
CC1(C)CC(N=c2cc(-c3ccccc3)oc3ccc(Cl)cc23)CC(C)(C)N1	0.609	9.6	0.251
O=C1CCC(CCNCc2ccc(Cl)cc2)N1CC1(N2CCCCC2)CCCC1 (centres undefined)	0.632	> 10	> 1.25
CCCC1=[N+](CC(=O)c2ccc(C)cc2)CCn2c(C)ccc21	> 0.618	> 10	0.792
COc1ccccc1N1CCN(c2ccc(NC(=O)c3cccc(F)c3)cc2C(=O)N2CCCC2)CC1	6.35	> 100	> 12.5
O=C(NCCC(c1ccccc1)c1ccccc1)c1cccc([N+](=O)[O-])c1	0.618	> 10	0.302
CCCc1nc2ccc(NC(=O)NCC)cc2c(=O)n1Cc1ccc(-c2ccccc2)cc1	6.32	> 100	9.05
CN(C(=O)CCNC(=O)Cn1cnc2ccccc2c1=O)C1CCCCC1	> 0.636	> 10	> 1.25
O=C1N(Cc2cc3ccccc3s2)CC2CN(Cc3ccoc3)CCN12 (centres undefined)	0.619	> 10	1.08
CC(NS(=O)(=O)c1ccccc1)C(c1cccs1)N1CCN(c2ccccc2F)CC1 (centres undefined)	6.35	> 100	> 12.5
COc1ccc(CN(C=O)/C=C2\Sc3ccccc3C2=O)cc1OC	0.617	> 10	> 1.25
COc1ccc(CC(=O)N(CCCC(C)Nc2cc(OC)cc3cccnc23)Cc2ccc(OC)c(OC)c2)cc1 (centres undefined)	0.666	> 10.8	1.2
O=C(c1ccccc1)N1CCN(CC(O)COCc2ccccc2)CC1 (centres undefined)	0.618	> 10	> 1.25
CC(C)c1ccc(/C=C/C(=O)NCc2ccco2)cc1	0.628	> 10	0.89
CCCN1CCC(N2C[C@@H](NC3CCCCCC3)C[C@H]2C(=O)NCCc2ccc3c(c2)OCO3)CC1	> 0.833	> 13	1.11
Cc1n[nH]c2c1C(c1ccc([N+](=O)[O-])cc1)N(c1ccc(Br)cc1)C2=O (centres undefined)	> 6.36	> 100	> 12.5
CCC(=O)OC(C(C)C(=O)O)C(C)C1OC2(CCC(C)(C3CCC(C)(C4OC(C5OC(O)(CO)C(C)CC5C)CC4C)O3)O2)CC(O)C1C (centres undefined)	0.387	> 6.25	0.379
COc1ccc([C@]23Oc4cc(OC)cc(OC)c4[C@@]2(O)[C@@H](O)C(C(=O)N(C)C)[C@@H]3c2ccccc2)cc1 (some centres undefined)	0.63	> 10	> 0.602
COc1cc(OC)cc(N2C(=O)N(Cc3ccc(C(C)(C)C)cc3)c3ccccc3S2(=O)=O)c1	6.3	> 100	3.75
COC(=O)C1=C(C)NC(=Cc2cc(C)n(-c3ccc(Cl)c(Cl)c3)c2C)C1=O	6.32	> 100	6.9
CSc1c(C(=O)Nc2ccc(Br)cc2)ccc2c1C(=O)c1ccccc1C2=O	> 0.64	> 10	> 1.25
CC(C)(C)c1ccc(/C=C/C(=O)NCc2ccco2)cc1	0.639	> 10	0.792
OCCN1CCN(c2cc(-c3cccnc3)nc(-c3ccncc3)n2)CC1	0.626	> 10	0.945
CN(C)c1ccc(C(=Cc2cc(-c3ccccc3)cc(-c3ccccc3)[o+]2)c2ccc(N(C)C)cc2)cc1	0.898	14.4	1.99
